# Columns and labels:
# [1] = tested on: SF8628 intracranial xenografts; assay: SF8628 orthotopic xenograft model; assay type: in vivo, mice
# Method: Paraffin embedded blocks were cut in 5 μm sections. Slides were processed as follows: de-waxed in xylene followed by rehydration in a standard alcohol series. Antigen retrieval was by pressure cooking for 20 minutes in citrate buffer (pH 6.0), followed by blocking of endogenous peroxidase in 3% H2O2. The antibodies were added and incubated overnight at 4° C. Antibodies were detected using a secondary-HRP labeled mouse or rabbit antibody detection system (Dako EnVision+ System-HRP cat #k4401, cat #k4403) followed by addition 3,3′-Diaminobenzidine (DAB) chromagen (Vector Labs) for visualization. Sections were counter-stained with hematoxylin (Fisher Scientific Inc., Canada) and slides dehydrated in 70, 80, and 100% ethanol and xylene. Slides were cover slipped and mounted in Permount (Fisher Scientific Inc.). Antibodies and concentrations for IHC are as follows: Ki67 (1:100, Dako, cat #F7268). All images were captured on a Leica DM 100 microscope using Leica Application Suite Software (Switzerland, Version 3.8.0).
# All animal procedures were carried out ethically according to animal user protocols approved by Institutional Animal Care Committee (IACUC). 4-6 week-old non-obese diabetic severe combined immune deficiency male or female mice (NOD-SCID-Prkdc^scid) were injected with 1×10^5 SU-DIPG-13p cells or 1×10^5 SF8628 DIPG cells. […]
# [2] = tested on: DIPG-007, DIPG-IV, SF8628 and DIPG-13p cells; assay: Annexin-PI flow cytometry apoptosis assay; assay type: cell-based, human; conditions: for populations in early apoptosis, late apoptosis and necrosis / viable cells (Annexin negative, PI negative): 48 h, vs DMSO vehicle
# Method: Apoptosis was quantified using the Pacific Blue Annexin V Apoptosis Detection Kit with propidium iodide (BioLegend, San Diego, Calif. Cat #640926). Analysis was performed at the Flow Cytometry Core, Rangos Research Center, UPMC Children's Hospital of Pittsburgh.
# MYCN = MYCN qRT-PCR and western blot in DIPG-13p cells; assay type: cell-based, human
# Method: Cell pellets were lysed in PLC lysis buffer containing protease and phosphatase inhibitors (Roche Inc.). Protein lysates were quantified using the bicinchoninic acid (BCA) assay (Pierce Chemical Co., Rockford, Ill.). 30 μg of total protein lysate was loaded in 10% SDS-PAGE gels and electrophoresed. Proteins were transferred to PVDF membranes using a semi-dry transfer apparatus (Bio-Rad). Membranes were blocked for one hour and probed for various proteins overnight in 5% non-fat milk or 5% BSA in Tris Buffered Saline Solution, 0.5% Tween-20 (TBST) or Phosphate Buffered Saline Solution with 0.5% Tween-20 (PBST). […] Binding was detected using Chemiluminescence Reagent Plus (PerkinElmer Inc., MA, USA). […]
# Total RNA isolation was performed using an RNA extraction kit according to the manufacturer's instructions (RNeasy kit, Qiagen). cDNA was synthesized from 100 ng of total RNA using the Quantitect RT kit which included DNAse treatment (Qiagen). Quantitative real-time PCR was performed on 10 ng of cDNA template in a final volume of 20 μl using the Chromo4 Real Time PCR detector (MJ Research, a Division of Bio-Rad Laboratories Ltd) using SYBR green fluorescence. RT-PCR data was analyzed using Opticon Monitor 3.1.3 analysis software. […]
# DIPG-IV cells = assay: EC50 of ERK5-IN-1 in DIPG-IV cells expressing ERK5-HA, ERK5-HA T733E or MYC S62D; assay type: cell-based, human
# Method: Wildtype human H3F3A cDNA was ligated with a puromycin selection marker and a self-cleaving T2A sequence using Gibson Assembly Cloning and cloned into pLV with an EF1a promoter. HA-RASAL1 (NM_001193520.1) with an N-terminal HA tag, MYC (NM_002467.4), or MAPK7 (ERK5, NM_139033) were ligated with T2A mCherry and cloned into pLV under the control of the EF1a promoter. Cloning and plasmid sequence validation were performed by VectorBuilder Services (Santa Clara, Calif. 95050). Site-directed mutagenesis was performed to generate H3F3A K27M, H3F3A G34R, MYC S62D, and ERK5 mutant constructs using the QuikChange II Site-Directed Mutagenesis Kit and manufacturer's protocol (Agilent, Cat #200523, Santa Clara, Calif. 95051). Lentiviral ERK5 GIPZ shRNA plasmids were purchased from Dharmacon (Lafayette, Colo. 80026, Cat #RHS4531-EG5598 glycerol set: V2LHS 202701, V3LHS_366737, V3LHS_366738, V3LHS_366740, V3LHS_640828, V3LHS_640830).
# Direct cell counts were performed using the Countess II FL Automated Cell Counter (ThermoFisher Scientific). Alamar blue viability (ThermoFisher Scientific) and the 5-bromo-2′-deoxyuridine (BrdU) incorporated cell proliferation assay (Cell Signaling Technology Cat #6813) were performed using the manufacturer's standard protocol. EC50 curve analysis was performed using raw fluorescent Alamar blue values that were inputted into PRISM 7.0. […]
# CNMC-XD-760 = assay: Alamar blue viability EC50 in H3 wildtype DIPG cell line; assay type: cell-based, human; conditions: CNMC-XD-760 (DIPG histone wildtype H3) compared to H3 mutant DIPG cells and hemispheric pGBM cells; 96 h
# Method: Direct cell counts were performed using the Countess II FL Automated Cell Counter (ThermoFisher Scientific). Alamar blue viability (ThermoFisher Scientific) and the 5-bromo-2′-deoxyuridine (BrdU) incorporated cell proliferation assay (Cell Signaling Technology Cat #6813) were performed using the manufacturer's standard protocol. EC50 curve analysis was performed using raw fluorescent Alamar blue values that were inputted into PRISM 7.0. Drug concentrations were log 10 transformed and values normalized to percent viability with respect to vehicle treated cells. EC50 values were interpolated from a log inhibitor vs. normalized response with variable slope using a least square fit model.
smiles,measurement,setting,value
"CCOc1cc(C(=O)N2CCC(N3CCN(C)CC3)CC2)ccc1Nc1ncc2c(n1)N(C1CCCC1)c1ccccc1C(=O)N2C [ERK5-IN-1, 11-cyclopentyl-2-[[2-ethoxy-4-[[4-(4-methyl-1-piperazinyl)-1-piperidinyl]carbonyl]phenyl]amino]-5,11-dihydro-5-methyl-6H-pyrimido[4,5b][1,4]benzodiazepin-6-one]",median survival,"[1]; 50 mg/kg for 2 weeks (2 cycles of 5 days on 2 days off), SF8628 intracranial xenografts",40 days
same,KI-67 staining,"[1]; 50 mg/kg, SF8628 xenograft tumors, vs vehicle",reduced
same,"populations in early apoptosis, late apoptosis and necrosis",[2]; DIPG-007 and DIPG-IV cells,increased
same,"viable cells (Annexin negative, PI negative)",[2]; DIPG-007 and DIPG-IV cells,decreased
same,"populations in early apoptosis, late apoptosis and necrosis",[2]; SF8628 and DIPG-13p cells,increased
same,"viable cells (Annexin negative, PI negative)",[2]; SF8628 and DIPG-13p cells,decreased
same,rates of apoptosis,"[2]; DIPG-007 and DIPG-IV cells, compared to controls",significantly higher rates of apoptosis
same,apoptosis,[2]; DIPG-13p and SF8628 cells,induction of apoptosis
same,MYCN protein and transcript levels,MYCN,down-regulation
same,resistance to ERK5-IN-1 (EC50 values),DIPG-IV cells; DIPG-IV cells expressing MYC S62D vs empty vector control,promoted resistance
same,EC50 values,DIPG-IV cells; DIPG-IV cells expressing wild-type HA-tagged ERK5 or constitutively active ERK5 T733E vs empty vector,increased EC50 values
same,EC50 values for ERK5-IN-1,CNMC-XD-760,highest EC50 values

# — patent publication US20220031710A1, “USE OF ERK5 INHIBITORS FOR TREATING GLIOMAS IN PEDIATRIC SUBJECTS” (UNIVERSITY OF PITTSBURGH - OF THE COMMONWEALTH SYSTEM OF …, priority 2019, published 2022)
